PubChem BioAssay AID2060491 (Molecular Pharmacology Branch, DTP, NCI, 2025)
pIC50: −log10 of the molar value.

Tested on: 857933-349-R-J2-PDC complex spheroids, viability
Experiment: Anticancer human tumor 857933-349-R-J2-PDC patient-derived colon adenocarcinoma cell line growth inhibition [GQUAD]
Conditions: for pIC50: curve of first compound; for viability, T/C: stronger effect = lower value
Method in brief: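 Viability of tumor cells grown as complex spheroids with endothelial and stromal cells, exposed to drug combinations. Top concentration at or near clinical Cmax (else 10 microM), diluted in half-log increments.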

[1] = second compound 0.0316 µM, first compound 0.0316 µM
[2] = second compound 0.0316 µM, first compound 0.1 µM
[3] = second compound 0.0316 µM, first compound 0.316 µM
[4] = second compound 0.0316 µM, first compound 1 µM
[5] = second compound 0.0316 µM, first compound 3.16 µM
[6] = second compound 0.0316 µM, first compound 10 µM
[7] = second compound 0.1 µM, first compound 0.0316 µM
[8] = second compound 0.1 µM, first compound 0.1 µM
[9] = second compound 0.1 µM, first compound 0.316 µM
[10] = second compound 0.1 µM, first compound 1 µM
[11] = second compound 0.1 µM, first compound 3.16 µM
[12] = second compound 0.1 µM, first compound 10 µM
[13] = second compound 0.316 µM, first compound 0.0316 µM
[14] = second compound 0.316 µM, first compound 0.1 µM
[15] = second compound 0.316 µM, first compound 0.316 µM
[16] = second compound 0.316 µM, first compound 1 µM
[17] = second compound 0.316 µM, first compound 3.16 µM
[18] = second compound 0.316 µM, first compound 10 µM
[19] = second compound 1 µM, first compound 0.0316 µM
[20] = second compound 1 µM, first compound 0.1 µM
[21] = second compound 1 µM, first compound 0.316 µM
[22] = second compound 1 µM, first compound 1 µM
[23] = second compound 1 µM, first compound 3.16 µM
[24] = second compound 1 µM, first compound 10 µM
[25] = second compound 3.16 µM, first compound 0.0316 µM
[26] = second compound 3.16 µM, first compound 0.1 µM
[27] = second compound 3.16 µM, first compound 0.316 µM
[28] = second compound 3.16 µM, first compound 1 µM
[29] = second compound 3.16 µM, first compound 3.16 µM
[30] = second compound 3.16 µM, first compound 10 µM
[31] = second compound 10 µM, first compound 0.0316 µM
[32] = second compound 10 µM, first compound 0.1 µM
[33] = second compound 10 µM, first compound 0.316 µM
[34] = second compound 10 µM, first compound 1 µM
[35] = second compound 10 µM, first compound 3.16 µM
[36] = second compound 10 µM, first compound 10 µM
[37] = second compound 0.0316 µM, first compound 0.000999 µM
[38] = second compound 0.0316 µM, first compound 0.00316 µM
[39] = second compound 0.0316 µM, first compound 0.00999 µM
[40] = second compound 0.0316 µM, first compound 0.0999 µM
[41] = second compound 0.1 µM, first compound 0.000999 µM
[42] = second compound 0.1 µM, first compound 0.00316 µM
[43] = second compound 0.1 µM, first compound 0.00999 µM
[44] = second compound 0.1 µM, first compound 0.0999 µM
[45] = second compound 0.316 µM, first compound 0.000999 µM
[46] = second compound 0.316 µM, first compound 0.00316 µM
[47] = second compound 0.316 µM, first compound 0.00999 µM
[48] = second compound 0.316 µM, first compound 0.0999 µM
[49] = second compound 1 µM, first compound 0.000999 µM
[50] = second compound 1 µM, first compound 0.00316 µM
[51] = second compound 1 µM, first compound 0.00999 µM
[52] = second compound 1 µM, first compound 0.0999 µM
[53] = second compound 3.16 µM, first compound 0.000999 µM
[54] = second compound 3.16 µM, first compound 0.00316 µM
[55] = second compound 3.16 µM, first compound 0.00999 µM
[56] = second compound 3.16 µM, first compound 0.0999 µM
[57] = second compound 10 µM, first compound 0.000999 µM
[58] = second compound 10 µM, first compound 0.00316 µM
[59] = second compound 10 µM, first compound 0.00999 µM
[60] = second compound 10 µM, first compound 0.0999 µM
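Further: spheroids exposed to compounds for one week before readout.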
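Wherever viability, T/C is given: percent viability relative to vehicle DMSO wells taken as 100%.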

`C=CC(=O)N1CCN(c2nc(=O)n(-c3c(C)ccnc3C(C)C)c3nc(-c4c(O)cccc4F)c(F)cc23)C(C)C1` (stereo not drawn) + Cc1[nH]c2ccc(F)cc2c1-c1nc2c3cccnc3c3ncccc3c2[nH]1 gave a pIC50 (second compound 0.0316 µM) of under 5.00, a pIC50 (second compound 0.1 µM) of under 5.00 and a pIC50 (second compound 0.316 µM) of under 5.00. For the same molecule, the pIC50 (second compound 1 µM) was under 5.00, the pIC50 (second compound 3.16 µM) was under 5.00 and the pIC50 (second compound 10 µM) was under 5.00. It also gave a viability, T/C [1] of 102%, a viability, T/C [2] of 106% and a viability, T/C [3] of 96.7%. For the same molecule, the viability, T/C [4] was 102%, the viability, T/C [5] was 109% and the viability, T/C [6] was 86%. The viability, T/C [7] was 98.9%, the viability, T/C [8] was 101% and the viability, T/C [9] was 96.5%. It also gave a viability, T/C [10] of 104%, a viability, T/C [11] of 103% and a viability, T/C [12] of 93.4%. For the same molecule, the viability, T/C [13] was 95.1%, the viability, T/C [14] was 100% and the viability, T/C [15] was 101%. For the same molecule, the viability, T/C [16] was 97.4%, the viability, T/C [17] was 104% and the viability, T/C [18] was 89%. For the same molecule, the viability, T/C [19] was 101%, the viability, T/C [20] was 106% and the viability, T/C [21] was 96.3%. The viability, T/C [22] was 104%, the viability, T/C [23] was 108% and the viability, T/C [24] was 89.2%. It also gave a viability, T/C [25] of 99%, a viability, T/C [26] of 110% and a viability, T/C [27] of 91.3%. For the same molecule, the viability, T/C [28] was 99%, the viability, T/C [29] was 104% and the viability, T/C [30] was 95.3%. It also gave a viability, T/C [31] of 102%, a viability, T/C [32] of 98.2% and a viability, T/C [33] of 88.2%. The viability, T/C [34] was 92.7%, the viability, T/C [35] was 99% and the viability, T/C [36] was 84.7%.

Work on `CCc1c2c(nc3ccc(O)cc13)-c1cc3c(c(=O)n1C2)COC(=O)[C@]3(O)CC` + Cc1[nH]c2ccc(F)cc2c1-c1nc2c3cccnc3c3ncccc3c2[nH]1 yielded a pIC50 (second compound 0.0316 µM) of 8.06, a pIC50 (second compound 0.1 µM) of 8.27 and a pIC50 (second compound 0.316 µM) of 8.01. It also gave a pIC50 (second compound 1 µM) of 8.07, a pIC50 (second compound 3.16 µM) of 8.02 and a pIC50 (second compound 10 µM) of 8.07. For the same molecule, the viability, T/C [37] was 79.3%, the viability, T/C [38] was 63% and the viability, T/C [39] was 51.5%. It also gave a viability, T/C [1] of 24.8%, a viability, T/C [40] of 14.7% and a viability, T/C [3] of 12.2%. For the same molecule, the viability, T/C [41] was 80.2%, the viability, T/C [42] was 54.5% and the viability, T/C [43] was 45.5%. It also gave a viability, T/C [7] of 26.5%, a viability, T/C [44] of 15.3% and a viability, T/C [9] of 11.1%. The viability, T/C [45] was 73.5%, the viability, T/C [46] was 72.6% and the viability, T/C [47] was 47.9%. The viability, T/C [13] was 25%, the viability, T/C [48] was 15.4% and the viability, T/C [15] was 11.4%. The viability, T/C [49] was 74.8%, the viability, T/C [50] was 63.2% and the viability, T/C [51] was 49.8%. It also gave a viability, T/C [19] of 24.4%, a viability, T/C [52] of 16.6% and a viability, T/C [21] of 14.7%. For the same molecule, the viability, T/C [53] was 80.5%, the viability, T/C [54] was 60.1% and the viability, T/C [55] was 55.9%. The viability, T/C [25] was 27.4%, the viability, T/C [56] was 15.7% and the viability, T/C [27] was 13%. For the same molecule, the viability, T/C [57] was 80.7%, the viability, T/C [58] was 54.5% and the viability, T/C [59] was 59.2%. It also gave a viability, T/C [31] of 28.1%, a viability, T/C [60] of 18.7% and a viability, T/C [33] of 14.6%.

Work on `Cc1cccc(N(C)C(=O)C2C(O)CCN2c2nc(C)cc(C(F)(F)F)c2C#N)c1` (stereo not drawn) + Cc1[nH]c2ccc(F)cc2c1-c1nc2c3cccnc3c3ncccc3c2[nH]1 yielded a pIC50 (second compound 0.0316 µM) of under 5.00, a pIC50 (second compound 0.1 µM) of under 5.00 and a pIC50 (second compound 0.316 µM) of under 5.00. For the same molecule, the pIC50 (second compound 1 µM) was under 5.00, the pIC50 (second compound 3.16 µM) was under 5.00 and the pIC50 (second compound 10 µM) was under 5.00. For the same molecule, the viability, T/C [1] was 101%, the viability, T/C [2] was 99.1% and the viability, T/C [3] was 91.6%. For the same molecule, the viability, T/C [4] was 88.2%, the viability, T/C [5] was 98.3% and the viability, T/C [6] was 92%. It also gave a viability, T/C [7] of 95.2%, a viability, T/C [8] of 98.4% and a viability, T/C [9] of 98.8%. The viability, T/C [10] was 97.9%, the viability, T/C [11] was 102% and the viability, T/C [12] was 96.7%. The viability, T/C [13] was 101%, the viability, T/C [14] was 104% and the viability, T/C [15] was 106%. For the same molecule, the viability, T/C [16] was 102%, the viability, T/C [17] was 101% and the viability, T/C [18] was 110%. The viability, T/C [19] was 94.9%, the viability, T/C [20] was 101% and the viability, T/C [21] was 102%. For the same molecule, the viability, T/C [22] was 103%, the viability, T/C [23] was 110% and the viability, T/C [24] was 94.7%. It also gave a viability, T/C [25] of 94.6%, a viability, T/C [26] of 97.4% and a viability, T/C [27] of 111%. For the same molecule, the viability, T/C [28] was 100%, the viability, T/C [29] was 98.5% and the viability, T/C [30] was 99.7%. It also gave a viability, T/C [31] of 96.1%, a viability, T/C [32] of 101% and a viability, T/C [33] of 93%. For the same molecule, the viability, T/C [34] was 95%, the viability, T/C [35] was 97.5% and the viability, T/C [36] was 88.3%.

`Cn1ncnc1[C@H]1c2n[nH]c(=O)c3cc(F)cc(c23)N[C@@H]1c1ccc(F)cc1` + Cc1[nH]c2ccc(F)cc2c1-c1nc2c3cccnc3c3ncccc3c2[nH]1 was tested, and the pIC50 (second compound 0.0316 µM) was under 6.50, the pIC50 (second compound 0.1 µM) was under 6.50 and the pIC50 (second compound 0.316 µM) was under 6.50. For the same molecule, the pIC50 (second compound 1 µM) was under 6.50, the pIC50 (second compound 3.16 µM) was under 6.50 and the pIC50 (second compound 10 µM) was under 6.50. The viability, T/C [37] was 104%, the viability, T/C [38] was 86% and the viability, T/C [39] was 103%. For the same molecule, the viability, T/C [1] was 89.7%, the viability, T/C [40] was 106% and the viability, T/C [3] was 109%. It also gave a viability, T/C [41] of 95.8%, a viability, T/C [42] of 105% and a viability, T/C [43] of 98%. For the same molecule, the viability, T/C [7] was 92.7%, the viability, T/C [44] was 102% and the viability, T/C [9] was 104%. For the same molecule, the viability, T/C [45] was 97.3%, the viability, T/C [46] was 112% and the viability, T/C [47] was 97%. The viability, T/C [13] was 104%, the viability, T/C [48] was 102% and the viability, T/C [15] was 98.6%. It also gave a viability, T/C [49] of 96.1%, a viability, T/C [50] of 101% and a viability, T/C [51] of 97.4%. It also gave a viability, T/C [19] of 95.8%, a viability, T/C [52] of 104% and a viability, T/C [21] of 94.8%. It also gave a viability, T/C [53] of 92.2%, a viability, T/C [54] of 101% and a viability, T/C [55] of 91.9%. For the same molecule, the viability, T/C [25] was 103%, the viability, T/C [56] was 114% and the viability, T/C [27] was 96.9%. The viability, T/C [57] was 102%, the viability, T/C [58] was 99.3% and the viability, T/C [59] was 97.1%. The viability, T/C [31] was 99.2%, the viability, T/C [60] was 104% and the viability, T/C [33] was 94.6%.
